# Assay results as given in patent US11832662B2, “Methods and devices for preventing viral transmission” (priority 2020, dated 2023).
# Like-named read-outs stand apart in the source and are kept apart here.
# Columns and labels:
# HUVEC cells [1] = assay: EF-induced reorientation of endothelial cells (orientation index Oi); format: cell-based, human
# Description: HUVEC cells were seeded in a trough formed by two parallel (1 cm apart) strips of glass coverslip (No. 1, length of 22 mm) fixed to the base of the dish with silicone grease. Scratch lines were made perpendicular to the long axis of the chamber with a fine sterile needle and used as reference marks for directed cell migration. Cells were incubated for 24-48 hours (37° C., 5% CO2) before a roof coverslip was applied and sealed with silicone grease. The final dimensions of the chamber, through which current was passed, were 22×10×0.2 mm. Agar-salt bridges not less than 15 cm long were used to connect silver/silver-chloride electrodes in beakers of Steinberg's solution (58 mM NaCl, 0.67 mM KCl, 0.44 mM Ca(NO3)2, 1.3 mM MgSO4, 4.6 mM Trizma base, pH 7.8-8.0), to pools of excess culture medium at either side of the chamber. Field strengths were measured directly at the beginning of, the end of and during each experiment. […] (50 μM), the Rho kinase inhibitor Y27632 (50 μM), both Akt and Rho kinase inhibitors (10 μM each) or latrunculin (50 nM) for 1 hour before EF stimulation. The same concentration of drug was present during EF exposure in a CO2 incubator.
# A series of images was taken with an image analyser immediately before EF exposure and at 4, 8 and 24 hours of EF exposure. Cell orientation was quantified as an orientation index (Oi), which is defined as Oi=cos 2(α), where a is the angle formed by the long axis of a cell with a line drawn perpendicular to the field lines. A cell with its long axis parallel to the vector of the EF will have an Oi of −1, and a cell with its long axis exactly perpendicular to the EF vector will have an Oi of +1. A randomly oriented population of cells will have an average Oi {defined as [Σn cos 2(α)]÷n} of 0. The significance of this two-dimensional orientation distribution against randomness was calculated using Rayleigh's distribution. A long:short axis ratio was calculated for assessment of elongation.
# HUVEC cells [2] = assay: EF-induced elongation of endothelial cells (long:short axis ratio); format: cell-based, human; conditions: versus control
# Description: HUVEC cells were seeded in a trough formed by two parallel (1 cm apart) strips of glass coverslip (No. 1, length of 22 mm) fixed to the base of the dish with silicone grease. Scratch lines were made perpendicular to the long axis of the chamber with a fine sterile needle and used as reference marks for directed cell migration. Cells were incubated for 24-48 hours (37° C., 5% CO2) before a roof coverslip was applied and sealed with silicone grease. The final dimensions of the chamber, through which current was passed, were 22×10×0.2 mm. Agar-salt bridges not less than 15 cm long were used to connect silver/silver-chloride electrodes in beakers of Steinberg's solution (58 mM NaCl, 0.67 mM KCl, 0.44 mM Ca(NO3)2, 1.3 mM MgSO4, 4.6 mM Trizma base, pH 7.8-8.0), to pools of excess culture medium at either side of the chamber. Field strengths were measured directly at the beginning of, the end of and during each experiment. No fluctuations in field strength were observed. […] (50 μM), the Rho kinase inhibitor Y27632 (50 μM), both Akt and Rho kinase inhibitors (10 μM each) or latrunculin (50 nM) for 1 hour before EF stimulation. The same concentration of drug was present during EF exposure in a CO2 incubator.
# A series of images was taken with an image analyser immediately before EF exposure and at 4, 8 and 24 hours of EF exposure. Cell orientation was quantified as an orientation index (Oi), which is defined as Oi=cos 2(α), where a is the angle formed by the long axis of a cell with a line drawn perpendicular to the field lines. A cell with its long axis parallel to the vector of the EF will have an Oi of −1, and a cell with its long axis exactly perpendicular to the EF vector will have an Oi of +1. […] The significance of this two-dimensional orientation distribution against randomness was calculated using Rayleigh's distribution. A long:short axis ratio was calculated for assessment of elongation.
# HUVEC cells elongated dramatically in an EF. […] We quantified the elongation of the cells using a long:short axis ratio. […]
# [3] = test system: HaCaT human keratinocytes; assay: Scratch assay, keratinocyte migration, Example 3; format: cell-based; conditions: LLEC-treated cells, N-acetylcysteine 5 mM 1 h pretreatment, IGF-1R inhibitor picropodophyllin 50 nM
# [4] = drug present 1 hour before and during EF exposure
Compound,orientation response of cells in an EF (HUVEC cells [1]; [4]),long:short axis ratio / elongation response in EF-treated cells (HUVEC cells [2]),also measured
"COc1cc2ncnc(Nc3ccc(Cl)cc3F)c2cc1OC [VEGFR inhibitor, 4-[(4′-chloro-2′-fluoro)phenylamino]-6,7-dimethoxyquinazoline]",completely abolished,–,–
C[C@@H](N)[C@H]1CC[C@H](C(=O)Nc2ccncc2)CC1 [Y27632],decreased the orientation response significantly,significantly decreased,–
N#CC(=C(/N)Sc1ccccc1N)/C(C#N)=C(\N)Sc1ccccc1N [U0126],–,–,orientation index Oi (HUVEC cells [1]): 0.33±0.03; orientation response of cells in an EF (HUVEC cells [1]): decreased the orientation to a similar extent
CC(=O)N[C@@H](CS)C(=O)O [N-Acetyl Cysteine],–,–,LLEC-increased keratinocyte migration in presence of blocker [3]: failed to reproduce the increased migration; LLEC-increased keratinocyte migration in presence of blocker ([3]; listed as N-acetyl cysteine): prevented
"COc1cc([C@@H]2c3cc4c(cc3[C@H](O)[C@H]3COC(=O)[C@@H]23)OCO4)cc(OC)c1OC [IGF-1R inhibitor, picropodophyllin]",–,–,LLEC-increased keratinocyte migration in presence of blocker [3]: attenuated the increased keratinocyte migration
C/C1=C/C(=O)O[C@@H]2C[C@@H](CC[C@H](C)/C=C\C=C\CC1)O[C@@](O)([C@@H]1CSC(=O)N1)C2 [Latrunculin A],suppressed the orientation response significantly,completely abolished,–
1-L-6-hydroxymethyl-chiro-inositol 2-[(R)-2-O-methyl-3-O-octadecylcarbonate] [Akt inhibitor],significantly decreased,significantly decreased,–
